Data reported in US8927580B2, “Thiosemicarbazone compounds and use in the treatment of cancer” (Oncochel Therapeutics LLC, priority 2010, dated 2015).

Tests used:
[1] = system: SK-N-MC neuroepithelioma cell line; test: MTT anti-proliferative assay in SK-N-MC cells; format: cell-based, human; details: Homo sapiens, 72 h at 37° C., mean±SD (3 experiments)
Protocol: The cells were maintained in minimum essential media (MEM; Invitrogen, CA, USA) which contained 10% fetal calf serum (FCS; JRH Biosciences, Kansas, USA), 1% non-essential amino acids (Gibco, Victoria, Australia), 1% penicillin/streptomycin/glutamine (Gibco, VIC, Australia) and fungizone ([…]; Squibb Pharmaceuticals, Montreal, Canada).
The ability of the compounds to inhibit cellular proliferation was assessed initially in SK-N-MC cells by the MTT assay.
Table 1. […] Cells were seed and allowed to attach to wells for 24 h and then incubated for 72 h at 37° C. with control medium or the chelators.

[2] = system: SK-N-MC neuroepithelioma cells; test: Iron efflux assay (59Fe release from pre-labeled cells); format: cell-based, human; details: 25 μM chelator, 3 h at 37° C.
Protocol: The culture dishes were then placed on ice, the supernatant containing excess ^59Fe-Tf was aspirated and the cells washed 4 times with ice-cold PBS. […] After 3 h the culture dishes were again placed on ice, the media was collected in counting tubes and this provided a measurement of released ^59Fe. Ice-cold PBS (1 mL) was added to plates containing cells and cells were scraped from the plastic surface using a Teflon spatula and also collected in counting tubes. These tubes represent the intracellular ^59Fe content. Results are expressed as total ^59Fe released as a percentage of total ^59Fe present. Radioactivity was measured using a Wallac Wizard 3″ Gamma Counter (PerkinElmer, MA, USA).

[3] = system: SK-N-MC neuroepithelioma cells; test: Iron uptake assay (59Fe uptake from 59Fe-transferrin); format: cell-based, human; details: 25 μM chelator, 3 h at 37° C., 59Fe-Tf
Protocol: Cells were cultured in the same way as for the iron efflux experiments. […] At the end of the incubation the culture dishes were placed on ice, the media aspirated, and the cells washed 4 times with ice cold PBS. Protease (1 mL; 1 mg/mL; Sigma-Aldrich, NSW, Australia) solution was added to each plate and allowed to incubate on ice for 30 min. This facilitated the removal of membrane bound ^59Fe-Tf. Cells were then scraped from the plastic surface using a Teflon spatula and collected in Eppendorf tubes. These were centrifuged at 10000 rpm and 4° C. for 3 min. The supernatant was then transferred into counting tubes and the cell pellet resuspended in PBS before also being transferred into another set of counting tubes. Radioactivity was measured using a Wallac Wizard 3″ Gamma Counter (PerkinElmer, MA, USA). Results are expressed as average ^59Fe content of the cellular fraction as a percentage of the control value.

[4] = system: DMS-53 human lung carcinoma; test: DMS-53 xenograft in nude mice, i.v. administration: tumour growth; format: in vivo, nude mice (BALBc nu/nu); details: after 25 days, 4 or 6 mg/kg
[5] = system: DMS-53 human lung carcinoma; test: DMS-53 xenograft in nude mice, oral gavage: tumour growth; format: in vivo, nude mice (BALBc nu/nu); details: for Tumour weight: 21 days; for net tumour size (% of initial tumour volume): after 21 days
[6] = DMS-53 xenograft oral study: body and organ weights, haematology, biochemistry, histology; format: in vivo, nude mice (BALBc nu/nu); details: for Alanine Aminotransferase (ALT) / Albumin / Alkaline Phosphatase (ALP) / Cholesterol / Haematocrit (HCT) / Haemoglobin (HGB) / Platelets / Serum Iron / Total Iron-Binding Capacity (TIBC) / Triglyceride / Unsaturated Iron-Binding Capacity (UIBC) / White Blood Cell (WBC): oral gavage 21 days; for Red Blood Cell (RBC): oral gavage for 21 days, 3 days/week; for Body weight (% initial) / Brain weight / Heart weight / Kidney weight / Liver weight / Lung weight / Spleen weight: oral

IC50 [1]: 4.1 nM | Albumin ([6]; 2.5 mg/kg): 31.3 g/L | Alkaline Phosphatase (ALP) ([6]; 2.5 mg/kg): 85.7 U/L | Cholesterol ([6]; 2.5 mg/kg): 2.44 mmol/L | Haematocrit (HCT) ([6]; 2.5 mg/kg): 44% | Haemoglobin (HGB) ([6]; 2.5 mg/kg): 148 g/L | Platelets ([6]; 2.5 mg/kg): 1047 10^9/L | Serum Iron ([6]; 2.5 mg/kg): 25.5 µmol/L | Total Iron-Binding Capacity (TIBC) ([6]; 2.5 mg/kg): 56.7 µmol/L | Triglyceride ([6]; 2.5 mg/kg): 1.00 mmol/L | Unsaturated Iron-Binding Capacity (UIBC) ([6]; 2.5 mg/kg): 57.9 µmol/L | White Blood Cell (WBC) ([6]; 2.5 mg/kg): 2.68 10^9/L | Albumin ([6]; 5 mg/kg): 30.4 g/L | Alkaline Phosphatase (ALP) ([6]; 5 mg/kg): 61.7 U/L | Cholesterol ([6]; 5 mg/kg): 2.63 mmol/L | Haematocrit (HCT) ([6]; 5 mg/kg): 43% | Haemoglobin (HGB) ([6]; 5 mg/kg): 143 g/L | Platelets ([6]; 5 mg/kg): 973 10^9/L | Serum Iron ([6]; 5 mg/kg): 31.0 µmol/L | Total Iron-Binding Capacity (TIBC) ([6]; 5 mg/kg): 53.1 µmol/L | Triglyceride ([6]; 5 mg/kg): 0.57 mmol/L | Unsaturated Iron-Binding Capacity (UIBC) ([6]; 5 mg/kg): 66.9 µmol/L | White Blood Cell (WBC) ([6]; 5 mg/kg): 1.80 10^9/L | Albumin ([6]; 7.5 mg/kg): 31.3 g/L | Alkaline Phosphatase (ALP) ([6]; 7.5 mg/kg): 87.2 U/L | Cholesterol ([6]; 7.5 mg/kg): 2.78 mmol/L | Haematocrit (HCT) ([6]; 7.5 mg/kg): 45% | Haemoglobin (HGB) ([6]; 7.5 mg/kg): 151 g/L | Platelets ([6]; 7.5 mg/kg): 834 10^9/L | Serum Iron ([6]; 7.5 mg/kg): 32.8 µmol/L | Total Iron-Binding Capacity (TIBC) ([6]; 7.5 mg/kg): 56.8 µmol/L | Triglyceride ([6]; 7.5 mg/kg): 0.67 mmol/L | Unsaturated Iron-Binding Capacity (UIBC) ([6]; 7.5 mg/kg): 64.9 µmol/L | White Blood Cell (WBC) ([6]; 7.5 mg/kg): 3.08 10^9/L | Albumin ([6]; 10 mg/kg): 29.3 g/L | Alkaline Phosphatase (ALP) ([6]; 10 mg/kg): 89.5 U/L | Cholesterol ([6]; 10 mg/kg): 2.46 mmol/L | Haematocrit (HCT) ([6]; 10 mg/kg): 44% | Haemoglobin (HGB) ([6]; 10 mg/kg): 142 g/L | Platelets ([6]; 10 mg/kg): 917 10^9/L | Serum Iron ([6]; 10 mg/kg): 21.2 µmol/L | Total Iron-Binding Capacity (TIBC) ([6]; 10 mg/kg): 60.2 µmol/L | Triglyceride ([6]; 10 mg/kg): 0.94 mmol/L | Unsaturated Iron-Binding Capacity (UIBC) ([6]; 10 mg/kg): 50.1 µmol/L | White Blood Cell (WBC) ([6]; 10 mg/kg): 3.27 10^9/L | Red Blood Cell (RBC) ([6]; 2.5 mg/kg): 10.55 10^12/L | Red Blood Cell (RBC) ([6]; 5 mg/kg): 10.26 10^12/L | Red Blood Cell (RBC) ([6]; 7.5 mg/kg): 10.85 10^12/L | Red Blood Cell (RBC) ([6]; 10 mg/kg): 10.18 10^12/L | Brain weight ([6]; 2.5 mg/kg): 0.372 ± 0.006 g | Heart weight ([6]; 2.5 mg/kg): 0.078 ± 0.002 g | Kidney weight ([6]; 2.5 mg/kg): 0.194 ± 0.005 g | Liver weight ([6]; 2.5 mg/kg): 0.87 ± 0.02 g | Lung weight ([6]; 2.5 mg/kg): 0.121 ± 0.005 g | Spleen weight ([6]; 2.5 mg/kg): 0.075 ± 0.004 g | Brain weight ([6]; 5 mg/kg): 0.367 ± 0.007 g | Heart weight ([6]; 5 mg/kg): 0.078 ± 0.002 g | Kidney weight ([6]; 5 mg/kg): 0.187 ± 0.006 g | Liver weight ([6]; 5 mg/kg): 0.77 ± 0.02 g | Lung weight ([6]; 5 mg/kg): 0.117 ± 0.003 g | Spleen weight ([6]; 5 mg/kg): 0.075 ± 0.004 g | Brain weight ([6]; 7.5 mg/kg): 0.356 ± 0.007 g | Heart weight ([6]; 7.5 mg/kg): 0.092 ± 0.005 g | Kidney weight ([6]; 7.5 mg/kg): 0.193 ± 0.008 g | Liver weight ([6]; 7.5 mg/kg): 0.83 ± 0.03 g | Lung weight ([6]; 7.5 mg/kg): 0.119 ± 0.004 g | Spleen weight ([6]; 7.5 mg/kg): 0.061 ± 0.009 g
SMILES: CCN(C)C(=S)NN=C(c1ccccn1)c1ccccn1 [Dp4e4mT, di-2-pyridylketone 4-ethyl-4-methyl-3-thiosemicarbazone]
cellular 59Fe mobilised (59Fe released as percentage of total 59Fe) [2]: 38% | cellular 59Fe uptake (% of the control) [3]: 12% | net tumour size (% of the initial tumour volume) [4]: 120-122% | Tumour weight ([5]; 2.5 mg/kg): 0.63 ± 0.17 g | Tumour weight ([5]; 5 mg/kg): 0.89 ± 0.14 g | Tumour weight ([5]; 7.5 mg/kg): 0.60 ± 0.15 g | net tumour size (% of initial tumour volume) ([5]; 7.5 mg/kg): 404% | net tumour size (% of initial tumour volume) ([5]; 10 mg/kg): 284% | Alanine Aminotransferase (ALT) ([6]; 2.5 mg/kg): 73.1 U/L | Alanine Aminotransferase (ALT) ([6]; 5 mg/kg): 44.9 U/L | Alanine Aminotransferase (ALT) ([6]; 7.5 mg/kg): 57.2 U/L | Alanine Aminotransferase (ALT) ([6]; 10 mg/kg): 63.4 U/L | Body weight (% initial) ([6]; 2.5 mg/kg): 94.1 ± 1.3 % initial | Body weight (% initial) ([6]; 5 mg/kg): 91.6 ± 2.4 % initial | Body weight (% initial) ([6]; 7.5 mg/kg): 91.6 ± 2.2 % initial
